SMILES strings stand for the structures. Substitutions are numbered along the chain they refer to. pEC50: −log10 of the molar value. Some results are limits rather than exact numbers.

We go through one compound from ChEMBL document CHEMBL4229572, “VU6007477, a Novel M1 PAM Based on a Pyrrolo[2,3-b]pyridine Carboxamide Core Devoid of Cholinergic Adverse Events” (ACS Med Chem Lett, 2018).

The target of series [1] is T1, Muscarinic acetylcholine receptor M1 (Homo sapiens, UniProt P11229).
T1 sequence (P11229 whole entry): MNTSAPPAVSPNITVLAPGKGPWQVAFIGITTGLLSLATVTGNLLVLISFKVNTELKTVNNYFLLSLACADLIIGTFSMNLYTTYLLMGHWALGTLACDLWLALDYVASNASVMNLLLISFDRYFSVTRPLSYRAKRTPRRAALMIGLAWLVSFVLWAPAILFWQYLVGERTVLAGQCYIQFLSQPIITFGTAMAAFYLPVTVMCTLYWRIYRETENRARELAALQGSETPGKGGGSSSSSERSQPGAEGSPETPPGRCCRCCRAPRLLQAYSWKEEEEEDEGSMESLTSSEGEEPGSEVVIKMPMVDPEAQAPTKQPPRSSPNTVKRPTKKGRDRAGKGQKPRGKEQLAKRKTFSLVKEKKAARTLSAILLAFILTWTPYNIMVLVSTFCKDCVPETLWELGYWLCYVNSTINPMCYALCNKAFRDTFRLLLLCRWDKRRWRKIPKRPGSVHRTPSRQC
The series is described as follows: Agonist activity at human M1 receptor expressed in CHO cells assessed as increase in calcium mobilization measured after 2.5 mins by Fluo-4-AM dye based assay. It counts as functional, cell-based.

In series [2] the target is T2, Muscarinic acetylcholine receptor M2 (Homo sapiens, UniProt P08172).
T2 sequence (P08172 whole entry): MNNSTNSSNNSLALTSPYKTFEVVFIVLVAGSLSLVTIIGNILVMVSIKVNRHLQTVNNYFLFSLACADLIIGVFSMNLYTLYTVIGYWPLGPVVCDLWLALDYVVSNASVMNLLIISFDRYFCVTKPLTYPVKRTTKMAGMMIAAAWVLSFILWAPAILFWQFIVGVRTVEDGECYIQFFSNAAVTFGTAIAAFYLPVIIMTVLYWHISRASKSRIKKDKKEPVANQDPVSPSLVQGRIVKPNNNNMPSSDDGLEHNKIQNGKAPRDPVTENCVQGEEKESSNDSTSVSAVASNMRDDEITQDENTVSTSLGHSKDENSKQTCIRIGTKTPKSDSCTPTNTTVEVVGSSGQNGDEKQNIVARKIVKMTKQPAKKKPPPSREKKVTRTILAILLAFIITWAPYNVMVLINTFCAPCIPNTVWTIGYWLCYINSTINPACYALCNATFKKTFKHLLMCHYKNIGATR
The series is described as follows: Positive allosteric modulation of human M2 receptor expressed in CHO cells co-expressing Gqi5 assessed as increase in acetylcholine-induced calcium mobilization pretreated for 2.5 mins followed by acetylcholine addition and measured after 1 min by Fluo-4-AM dye based assay. It counts as functional, cell-based.

For series [3], the target named is Muscarinic acetylcholine receptor M3 (Homo sapiens, UniProt P20309). As to the kind of experiment: Positive allosteric modulation of human M3 receptor expressed in CHO cells assessed as increase in acetylcholine-induced calcium mobilization pretreated for 2.5 mins followed by acetylcholine addition and measured after 1 min by Fluo-4-AM dye based assay. It counts as functional, cell-based.

The nature of series [4]: Ratio of unbound brain to plasma concentration in cannulated Sprague-Dawley rat at 0.2 mg/kg, iv administered via jugular vein as cassette dose measured after 0.25 hrs by LC-MS/MS analysis. It is filed as ADME, organism-based. The settings on record: Sprague-Dawley, brain and plasma, read-out: K(p,uu,brain).
The target in series [5] is T3, Muscarinic acetylcholine receptor M4 (Homo sapiens, UniProt P08173).
T3 sequence (P08173 whole entry): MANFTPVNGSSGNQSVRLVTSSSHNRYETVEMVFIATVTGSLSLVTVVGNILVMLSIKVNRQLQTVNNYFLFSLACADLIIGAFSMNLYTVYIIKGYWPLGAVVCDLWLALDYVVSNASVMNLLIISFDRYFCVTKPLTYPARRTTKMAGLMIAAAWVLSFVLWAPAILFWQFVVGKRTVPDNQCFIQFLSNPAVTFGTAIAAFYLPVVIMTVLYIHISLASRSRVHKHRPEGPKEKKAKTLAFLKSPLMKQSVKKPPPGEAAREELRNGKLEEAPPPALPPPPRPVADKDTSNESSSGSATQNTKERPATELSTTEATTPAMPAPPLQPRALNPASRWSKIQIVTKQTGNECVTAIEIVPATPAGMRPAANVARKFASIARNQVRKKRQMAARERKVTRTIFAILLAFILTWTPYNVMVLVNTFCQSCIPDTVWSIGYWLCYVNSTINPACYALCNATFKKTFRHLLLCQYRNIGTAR
As to the kind of experiment: Positive allosteric modulation of human M4 receptor expressed in CHO cells co-expressing Gqi5 assessed as increase in acetylcholine-induced calcium mobilization pretreated for 2.5 mins followed by acetylcholine addition and measured after 1 min by Fluo-4-AM dye based assay. It is filed as functional, cell-based.

Series [6] is described as follows: Protein binding in rat brain assessed as unbound fraction. It counts as ADME, tissue-based.
The nature of series [7]: Protein binding in human plasma assessed as unbound fraction at 5 uL measured after 4 hrs by LC-MS/MS based equilibrium dialysis method. It is filed as ADME, cell-free.
Series [8] concerns P-gp. As to the kind of experiment: Substrate activity at P-gp (unknown origin) assessed as apparent permeability. The settings on record: human, not told. It counts as ADME.
The test system of series [9] is P-gp. The series is described as follows: Substrate activity at P-gp (unknown origin) assessed as efflux ratio of permeability. The settings on record: human, not told. It is filed as ADME.
Series [10] in a line: Total brain to plasma partition coefficient, Kp in C57BL/6J mouse at 100 mg/kg, ip after 1 hr by LC-MS/MS analysis. It counts as ADME, organism-based. Conditions: brain and plasma.
Series [11] is described as follows: Protein binding in rat plasma assessed as unbound fraction at 5 uL measured after 4 hrs by LC-MS/MS based equilibrium dialysis method. It counts as ADME, cell-free.
The target in series [12] is T4, Muscarinic acetylcholine receptor M1 (Homo sapiens) (UniProt P11229).
T4 sequence (whole entry): T1 sequence (P11229 whole entry)
The series is described as follows: (§1) Positive allosteric modulation of human M1 receptor expressed in CHO cells assessed as increase in acetylcholine-induced calcium mobilization pretreated for 2.5 mins followed by acetylcholine addition and measured after 1 min by Fluo-4-AM dye based assay. It is filed as functional, cell-based.

The target in series [13] is T1, Muscarinic acetylcholine receptor M1. Described as §1. It counts as functional, cell-based.
Series [14] is described as follows: Ratio of unbound brain to plasma concentration in C57BL/6J mouse at 100 mg/kg, ip after 1 hr by LC-MS/MS analysis. The settings on record: brain and plasma, read-out: K(p,uu,brain). It counts as ADME, organism-based.
Series [15] addresses T5, Muscarinic acetylcholine receptor M1 (Rattus norvegicus, UniProt P08482).
T5 sequence (P08482 whole entry): T1 sequence (P11229 whole entry) with A5V, T254S, P309S, R320K, A337G, I413V
The series is described as follows: Agonist activity at rat M1 receptor expressed in CHO cells assessed as increase in calcium mobilization measured after 2.5 mins by Fluo-4-AM dye based assay. It is filed as functional, cell-based.

Muscarinic acetylcholine receptor M3, sequence (P20309 whole entry): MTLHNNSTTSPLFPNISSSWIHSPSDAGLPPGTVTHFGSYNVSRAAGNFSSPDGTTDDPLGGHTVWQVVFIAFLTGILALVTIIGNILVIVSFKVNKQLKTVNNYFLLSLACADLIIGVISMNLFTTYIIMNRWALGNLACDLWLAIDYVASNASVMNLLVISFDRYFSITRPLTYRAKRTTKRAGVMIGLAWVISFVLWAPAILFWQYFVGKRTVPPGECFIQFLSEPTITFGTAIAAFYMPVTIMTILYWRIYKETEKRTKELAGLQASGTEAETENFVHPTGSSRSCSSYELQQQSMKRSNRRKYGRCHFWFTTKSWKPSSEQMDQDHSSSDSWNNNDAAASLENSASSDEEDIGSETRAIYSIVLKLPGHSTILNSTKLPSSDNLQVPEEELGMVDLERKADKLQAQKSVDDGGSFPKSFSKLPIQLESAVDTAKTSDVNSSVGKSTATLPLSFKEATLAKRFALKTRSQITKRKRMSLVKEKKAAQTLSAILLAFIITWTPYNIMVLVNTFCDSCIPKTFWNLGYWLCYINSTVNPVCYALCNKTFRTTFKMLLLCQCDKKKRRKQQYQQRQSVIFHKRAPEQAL

With `Cn1cc(-c2ccc(Cc3cc(C(=O)NC4CCOCC4)nc4c3ccn4C)cn2)cn1`, the pEC50 in series [1] is 6.49; in series [2] it was less than 4.52; in series [3], less than 4.52; in [5], less than 4.52; in [13], 6.49; in series [15] (cho, read-out: EC50), less than 5.00. Moreover, the Kp uu at 0.25 h in series [4] came out at 0.32. In addition, the fraction unbound in [6] was 0.08. Also, the fraction unbound at 4 h, 5 uL in series [7] was found to be 0.04; in [11], 0.06. Further, in the series on P-gp [8], the Papp worked out at 12 ×10⁻⁶ cm/s. Besides, the efflux ratio in the series with P-gp [9] was found to be 4.5. Also, the partition ratio (Kp) at 1 h in [10] amounted to 0.16. In addition, the %max in series [12] was determined as 84%. Also, in [14], the Kp uu at 1 h was found to be 0.18. Besides, in series [15] (read-out: pEC50 (converted)), the EC50 was greater than 10 µM.
